Laboratory results published in the NIST ThermoML archive (doi:10.1021/je8003782).

Test: xn = mol fraction of the nth substance listed
Details: 101 kPa, Liquid

C1N2CN3CN1CN(C2)C3 [1,3,5,7-tetraazaadamantane] + CC(=O)O
Details | mass density [kg/m3] | viscosity [mPa·s]
293.15 K, x1 = 0.0201 | 1058.6 | 1.497
293.15 K, x1 = 0.0401 | 1066.7 | 1.865
293.15 K, x1 = 0.06 | 1075.67 | 2.363
293.15 K, x1 = 0.0801 | 1085.77 | 3.021
293.15 K, x1 = 0.1 | 1091.87 | 3.841
293.15 K, x1 = 0.1201 | 1100.76 | 4.951
293.15 K, x1 = 0.15 | 1111.19 | 7.154
298.15 K, x1 = 0.0201 | 1052.66 | 1.367
298.15 K, x1 = 0.0401 | 1061.41 | 1.682
298.15 K, x1 = 0.06 | 1070.38 | 2.106
298.15 K, x1 = 0.0801 | 1080.66 | 2.655
298.15 K, x1 = 0.1 | 1086.54 | 3.333
298.15 K, x1 = 0.1201 | 1095.79 | 4.254
298.15 K, x1 = 0.15 | 1106.18 | 5.988
303.15 K, x1 = 0.0201 | 1046.65 | 1.248
303.15 K, x1 = 0.0401 | 1055.87 | 1.523
303.15 K, x1 = 0.06 | 1065.17 | 1.893
303.15 K, x1 = 0.0801 | 1075.44 | 2.355
303.15 K, x1 = 0.1 | 1081.61 | 2.919
303.15 K, x1 = 0.1201 | 1090.8 | 3.657
303.15 K, x1 = 0.15 | 1101.14 | 5.085
308.15 K, x1 = 0.0201 | 1042.8 | 1.148
308.15 K, x1 = 0.0401 | 1050.6 | 1.383
308.15 K, x1 = 0.06 | 1059.92 | 1.703
308.15 K, x1 = 0.0801 | 1068.93 | 2.091
308.15 K, x1 = 0.1 | 1076.58 | 2.565
308.15 K, x1 = 0.1201 | 1086.04 | 3.179
308.15 K, x1 = 0.15 | 1096.34 | 4.368
313.15 K, x1 = 0.0201 | 1036.2 | 1.059
313.15 K, x1 = 0.0401 | 1045.66 | 1.268
313.15 K, x1 = 0.06 | 1055.02 | 1.549
313.15 K, x1 = 0.0801 | 1063.52 | 1.879
313.15 K, x1 = 0.1 | 1071.68 | 2.296
313.15 K, x1 = 0.1201 | 1081.27 | 2.806
313.15 K, x1 = 0.15 | 1091.63 | 3.821
318.15 K, x1 = 0.0201 | 1030.1 | 0.992
318.15 K, x1 = 0.0401 | 1039.61 | 1.179
318.15 K, x1 = 0.06 | 1049.52 | 1.435
318.15 K, x1 = 0.0801 | 1057.74 | 1.719
318.15 K, x1 = 0.1 | 1065.6 | 2.073
318.15 K, x1 = 0.1201 | 1076.49 | 2.512
318.15 K, x1 = 0.15 | 1086 | 3.352
323.15 K, x1 = 0.0201 | 1024.35 | 0.909
323.15 K, x1 = 0.0401 | 1034.21 | 1.072
323.15 K, x1 = 0.06 | 1044.05 | 1.296
323.15 K, x1 = 0.0801 | 1052.4 | 1.541
323.15 K, x1 = 0.1 | 1060.71 | 1.842
323.15 K, x1 = 0.1201 | 1069.06 | 2.203
323.15 K, x1 = 0.15 | 1080.9 | 2.893
328.15 K, x1 = 0.0201 | 1019.23 | 0.845
328.15 K, x1 = 0.0401 | 1028.98 | 0.988
328.15 K, x1 = 0.06 | 1039.22 | 1.185
328.15 K, x1 = 0.0801 | 1047.33 | 1.395
328.15 K, x1 = 0.1 | 1055.72 | 1.657
328.15 K, x1 = 0.1201 | 1064 | 1.97
328.15 K, x1 = 0.15 | 1075.88 | 2.545
333.15 K, x1 = 0.0201 | 1014.76 | 0.79
333.15 K, x1 = 0.0401 | 1024.69 | 0.919
333.15 K, x1 = 0.06 | 1034.16 | 1.096
333.15 K, x1 = 0.0801 | 1043.04 | 1.279
333.15 K, x1 = 0.1 | 1051.63 | 1.515
333.15 K, x1 = 0.1201 | 1059.77 | 1.776
333.15 K, x1 = 0.15 | 1071.94 | 2.285

CC(=O)OC(C)=O [ethanoic anhydride] + CC(=O)O
Details | mass density [kg/m3] | viscosity [mPa·s]
293.15 K, x2 = 0 | 1080.89 | 0.888
293.15 K, x2 = 0.1 | 1079.28 | 0.905
293.15 K, x2 = 0.2 | 1077.19 | 0.92
293.15 K, x2 = 0.2999 | 1074.93 | 0.934
293.15 K, x2 = 0.3996 | 1072.42 | 0.954
293.15 K, x2 = 0.4999 | 1069.56 | 0.975
293.15 K, x2 = 0.5965 | 1066.68 | 1.004
293.15 K, x2 = 0.6992 | 1063.1 | 1.041
293.15 K, x2 = 0.8004 | 1059.19 | 1.084
293.15 K, x2 = 0.8976 | 1054.94 | 1.145
298.15 K, x2 = 0 | 1074.8 | 0.829
298.15 K, x2 = 0.1 | 1073.24 | 0.844
298.15 K, x2 = 0.2 | 1071.18 | 0.859
298.15 K, x2 = 0.2999 | 1068.96 | 0.872
298.15 K, x2 = 0.3996 | 1066.47 | 0.887
298.15 K, x2 = 0.4999 | 1063.66 | 0.908
298.15 K, x2 = 0.5965 | 1060.8 | 0.933
298.15 K, x2 = 0.6992 | 1057.27 | 0.966
298.15 K, x2 = 0.8004 | 1053.41 | 1.008
298.15 K, x2 = 0.8976 | 1049.21 | 1.057
303.15 K, x2 = 0 | 1068.7 | 0.778
303.15 K, x2 = 0.1 | 1067.18 | 0.793
303.15 K, x2 = 0.2 | 1065.17 | 0.805
303.15 K, x2 = 0.2999 | 1062.98 | 0.819
303.15 K, x2 = 0.3996 | 1060.53 | 0.831
303.15 K, x2 = 0.4999 | 1057.75 | 0.849
303.15 K, x2 = 0.5965 | 1054.93 | 0.874
303.15 K, x2 = 0.6992 | 1051.45 | 0.903
303.15 K, x2 = 0.8004 | 1047.64 | 0.936
303.15 K, x2 = 0.8976 | 1043.48 | 0.985
308.15 K, x2 = 0 | 1062.61 | 0.729
308.15 K, x2 = 0.1 | 1061.12 | 0.742
308.15 K, x2 = 0.2 | 1059.15 | 0.754
308.15 K, x2 = 0.2999 | 1057 | 0.768
308.15 K, x2 = 0.3996 | 1054.57 | 0.777
308.15 K, x2 = 0.4999 | 1051.83 | 0.793
308.15 K, x2 = 0.5965 | 1049.05 | 0.814
308.15 K, x2 = 0.6992 | 1045.62 | 0.842
308.15 K, x2 = 0.8004 | 1041.85 | 0.873
308.15 K, x2 = 0.8976 | 1037.75 | 0.919
313.15 K, x2 = 0 | 1056.49 | 0.688
313.15 K, x2 = 0.1 | 1055.06 | 0.699
313.15 K, x2 = 0.2 | 1053.12 | 0.71
313.15 K, x2 = 0.2999 | 1051 | 0.721
313.15 K, x2 = 0.3996 | 1048.6 | 0.734
313.15 K, x2 = 0.4999 | 1045.9 | 0.748
313.15 K, x2 = 0.5965 | 1043.16 | 0.766
313.15 K, x2 = 0.6992 | 1039.78 | 0.791
313.15 K, x2 = 0.8004 | 1036.06 | 0.82
313.15 K, x2 = 0.8976 | 1032.01 | 0.86
318.15 K, x2 = 0 | 1050.38 | 0.648
318.15 K, x2 = 0.1 | 1048.96 | 0.659
318.15 K, x2 = 0.2 | 1047.07 | 0.666
318.15 K, x2 = 0.2999 | 1044.99 | 0.678
318.15 K, x2 = 0.3996 | 1042.62 | 0.688
318.15 K, x2 = 0.4999 | 1039.96 | 0.703
318.15 K, x2 = 0.5965 | 1037.26 | 0.721
318.15 K, x2 = 0.6992 | 1033.93 | 0.743
318.15 K, x2 = 0.8004 | 1030.27 | 0.77
318.15 K, x2 = 0.8976 | 1026.28 | 0.8
323.15 K, x2 = 0 | 1044.24 | 0.61
323.15 K, x2 = 0.1 | 1042.87 | 0.621
323.15 K, x2 = 0.2 | 1041.01 | 0.627
323.15 K, x2 = 0.2999 | 1038.96 | 0.638
323.15 K, x2 = 0.3996 | 1036.63 | 0.649
323.15 K, x2 = 0.4999 | 1034.01 | 0.661
323.15 K, x2 = 0.5965 | 1031.34 | 0.676
323.15 K, x2 = 0.6992 | 1028.06 | 0.699
323.15 K, x2 = 0.8004 | 1024.46 | 0.723
323.15 K, x2 = 0.8976 | 1020.54 | 0.751
328.15 K, x2 = 0 | 1038.07 | 0.58
328.15 K, x2 = 0.1 | 1036.74 | 0.587
328.15 K, x2 = 0.2 | 1034.94 | 0.595
328.15 K, x2 = 0.2999 | 1032.91 | 0.603
328.15 K, x2 = 0.3996 | 1030.61 | 0.614
328.15 K, x2 = 0.4999 | 1028.04 | 0.625
328.15 K, x2 = 0.5965 | 1025.39 | 0.639
328.15 K, x2 = 0.6992 | 1022.18 | 0.66
328.15 K, x2 = 0.8004 | 1018.64 | 0.68
328.15 K, x2 = 0.8976 | 1014.79 | 0.708
333.15 K, x2 = 0 | 1031.9 | 0.548
333.15 K, x2 = 0.1 | 1030.63 | 0.556
333.15 K, x2 = 0.2 | 1028.83 | 0.562
333.15 K, x2 = 0.2999 | 1026.84 | 0.57
333.15 K, x2 = 0.3996 | 1024.57 | 0.58
333.15 K, x2 = 0.4999 | 1022.05 | 0.59
333.15 K, x2 = 0.5965 | 1019.44 | 0.605
333.15 K, x2 = 0.6992 | 1016.3 | 0.622
333.15 K, x2 = 0.8004 | 1012.82 | 0.64
333.15 K, x2 = 0.8976 | 1009.03 | 0.665
338.15 K, x2 = 0 | 1025.7 | 0.521
338.15 K, x2 = 0.1 | 1024.48 | 0.53
338.15 K, x2 = 0.2 | 1022.71 | 0.533
338.15 K, x2 = 0.2999 | 1020.75 | 0.542
338.15 K, x2 = 0.3996 | 1018.52 | 0.551
338.15 K, x2 = 0.4999 | 1016.04 | 0.558
338.15 K, x2 = 0.5965 | 1013.48 | 0.575
338.15 K, x2 = 0.6992 | 1010.39 | 0.59
338.15 K, x2 = 0.8004 | 1006.97 | 0.605
338.15 K, x2 = 0.8976 | 1003.24 | 0.629
